Columns and labels:
[1] = test system: Clostridium autoethanogenum DSM23693; conditions: 37° C., PETC medium
Protocol: The ethanol tolerance of Clostridium autoethanogenum DSM23693 was tested in serum bottles (FIG. 5). Ethanol was added in various concentrations to an active growing culture at 37° C. in PETC medium (Tab. 1) with 30 psi steel mill gas as substrate (approx 48% CO, 32% N2, 2% H2, and 18% CO2). Ethanol concentrations were confirmed by HPLC analysis using an Agilent 1100 Series HPLC system equipped with a RID operated at 35° C. (Refractive Index Detector) and an Alltech IOA-2000 Organic acid column (150×6.5 mm, particle size 5 μm) kept at 60° C. Slightly acidified water was used (0.005 M H2SO4) as mobile phase with a flow rate of 0.7 ml/min. To remove proteins and other cell residues, 400 μl samples were mixed with 100 μl of a 2% (w/v) 5-Sulfosalicylic acid and centrifuged at 14,000×g for 3 min to separate precipitated residues. 10 μl of the supernatant were then injected into the HPLC for analyses.

[2] = test system: Clostridium autoethanogenum; conditions: fermentation broth
Clostridium thermocellum = conditions: cited from earlier work

For `CCO` [ethanol, Ethanol], the “microbial biomass reached over a 24 hour period” value ([1]; 20 g/L ethanol added, 30 psi steel mill gas, start approx 0.2 g/L biomass, no-added-ethanol culture reached approx 0.85 g/L) was 0.45 g/L, the “ethanol concentration at which growth was found to be inhibited” value ([1]; serum bottles) was 10-20 g/l and the “concentration over which growth rate is partially inhibited and productivity decreases” value [2] was 20 to 40 g/L. For the same compound, the “concentration over which metabolism and growth rate are substantially slowed” value [2] was 40 to 50 g/L, the “ethanol concentration in which the micro-organism can still thrive” value (Clostridium thermocellum; after strain selection) was “up to 8%” and the “ethanol concentration inhibitory to growth” value (Clostridium thermocellum; unselected strain) was “above 1%”.

From US20110250629A1, “ALCOHOL PRODUCTION PROCESS” (Lanza Tech New Zealand Limited, priority 2009, published 2011)
